In PMC9774446, “Antifungal and Anti-Inflammatory Activities of PS1-2 Peptide against Fluconazole-Resistant Candida albicans” (Antibiotics, 2022):
In brackets after ≈: the same amount, converted by molar mass. Read-outs that look alike come from different tables or passages of the source. No end group written: not given here.

Experiments:
[1] = test system: Candida albicans CCARM 14007 (fluconazole-resistant strain); assay: microbe, parasite or virus in culture; type: cell-based
Excerpt: […] The lowest drug concentration at which no more than one colony was visible on the agar plate, was defined as a minimum fungicidal concentration (MFC).

[2] = cited from earlier work
Experimental: Alterations in the killing kinetic pattern under low salt (SP) and high salt (PBS) conditions can predict the interaction and mode of action of peptides on yeast. Because propidium (PI) dye can stain the live cells only temporarily, it will be released ... || To investigate the proteolytic stability of the peptides, the peptide solutions were pre-treated with trypsin for 40 min and added to C. albicans cells. After 24 h of incubation, cells were spread on agar plates (Figure 4).

C. albicans KCTC 7270 = assay: Drug-resistance assay (MFC over six passages); type: cell-based; conditions: Candida albicans
Experimental: To investigate the induction of drug resistance, C. albicans KCTC 7270 cells were prepared as for antifungal assay described above, at concentrations ranging from 1 to 128 μM. After 24 h incubation, MFCs were determined by the above method, and the surviving cells at half MFCs of each sample were treated with the diluted samples, repeating the process six times.

[3] = test system: RAW 264.7 cells stimulated with C. albicans CCARM 14007; assay: Anti-inflammatory assay in co-culture of RAW 264.7 and C. albicans; type: cell-based, murine; conditions: fluconazole 128 µM or PS1-2 32 µM, 24 h
Experimental: RAW 264.7 cells were cultured in DMEM supplemented with 10% FBS, 1% penicillin/streptomycin, and GlutaMax at 5% CO2 at 37 °C. The RAW 264.7 cells (2 × 10^5 cells/mL) suspended with RPMI-1640 medium were seeded into 12-well plates and incubated for 24 h. […] After 24 h incubation, cells were washed and harvested in PBS. A total of 1000 µL of blocking solution (5% bovine serum albumin with PBS) was added to each sample, incubated at 25 °C for 30 min, removed by centrifugation at 1000× g, and then incubated with the primary antibody (anti-TLR2, or anti-TNF-α; Abcam, Cambridge, UK, 1:200 dilution) for 1 h. The cells were washed with PBS and incubated with a secondary antibody (fluorescein isothiocyanate-conjugated goat anti-mouse IgG, 1:500 dilution; Santa Cruz Biotechnology) for 1 h. Cells expressing TLR2 were measured using an Attune NxT acoustic focusing cytometer. TNF-α expression was visualized using a confocal laser-scanning microscope (CLSM, A1R HD 25, Nikon, Tokyo, Japan).

[4] = test system: C. albicans CCARM 14007-infected mouse lung; type: in vivo, BALB/c mice
Excerpt: Animal study was approved by the Institutional Animal Care and Use Committee (IACUC) in Sunchon National University, South Korea (SCNU IACUC-2019-10). […] The mice anesthetized by inhalation of isoflurane (5%: induction, 2%: maintenance) in pure oxygen were intratracheally instilled with C. albicans cells. One hour after exposure, each peptide sample was intratracheally administered at the indicated dose, and the mice were monitored for signs of morbidity for 6 days. The lungs of mice euthanized by CO2 inhalation were excised and fixed in 4% paraformaldehyde. The fixed tissues were dehydrated using a series of ethanol solutions (50–100%) and embedded in paraffin. Paraffin-embedded tissues were sectioned at a thickness of 5 µm (Leica microtome, Deerfield, IL, USA), and the histopathology of the lung tissues was performed using alcian blue without/with eosin, and hematoxylin and eosin (H&E) staining.
TNF-α and NO production levels in blood collected from mouse hearts were determined using mouse anti-TNF-α microplate ELISA kit (R&D Systems, Minneapolis, MN, USA) and Griess reagent kit (Invitrogen, Carlsbad, CA, USA), respectively, followed by the manufacturer’s instructions.

C. albicans CCARM 14007 = conditions: CCARM 14007, pH 7.2
Experimental: C. albicans CCARM 14007 cells grown to the mid-log phase at 28 °C were suspended in 10 mM sodium phosphate (pH 7.2) buffer or PBS (pH 7.2) buffer with 10% YPD media at a density of 5 × 10^5 cells/mL. […] The cells were analyzed by fluorescence-activated cell sorting (FACS) system (Attune NxT acoustic focusing cytometer).

RWYRRWYRRWYR-NH2 [PS1-5] showed an MFC ([1]; CCARM 14007, 24 h, pH 6) of 16 µM and an MFC ([1]; CCARM 14007, 24 h, pH 7.2) of 32 µM.
In the case of KWLKKWLKKWLK-NH2 [PS1-6], the MFC ([1]; CCARM 14007, 24 h, pH 6) is given as 16 µM, the MFC ([1]; CCARM 14007, 24 h, pH 7.2) is given as 16 µM and the “toxicity / cytotoxicity (in words)” value [2] is given as “significant toxicity”.
`OC(Cn1cncn1)(Cn1cncn1)c1ccc(F)cc1F` [Fluconazole, fluconazole] showed an MFC ([1]; 28 °C, 6 mM CaCl2 (pH 5.5), 24 h) greater than 128 µM, an MFC ([1]; 28 °C, 6 mM MgCl2 (pH 5.5), 24 h) greater than 128 µM and an MFC ([1]; 28 °C, 24 mM KCl (pH 5.5), 24 h) greater than 128 µM. It also gave an MFC ([1]; 28 °C, pH 5.5, 10 mM sodium phosphate buffer containing 10% media, 24 h) greater than 128 µM, an MFC ([1]; 28 °C, pH 6.0, 10 mM sodium phosphate buffer containing 10% media, 24 h) greater than 128 µM and an MFC ([1]; 28 °C, pH 7.2, 10 mM sodium phosphate buffer containing 10% media, 24 h) greater than 128 µM. For the same compound, the MFC ([1]; 37 °C, 6 mM CaCl2 (pH 5.5), 24 h) was greater than 128 µM, the MFC ([1]; 37 °C, 6 mM MgCl2 (pH 5.5), 24 h) was greater than 128 µM and the MFC ([1]; 37 °C, 24 mM KCl (pH 5.5), 24 h) was greater than 128 µM. For the same compound, the MFC ([1]; 37 °C, 150 mM NaCl (pH 5.5), 24 h) was greater than 128 µM, the MFC ([1]; 37 °C, pH 5.5, 10 mM sodium phosphate buffer containing 10% media, 24 h) was greater than 128 µM and the MFC ([1]; Candida albicans, CCARM14007, 24 h, pH 5.5) was greater than 128 µM. The MFC ([1]; Candida albicans, CCARM14007, 24 h, pH 6) was greater than 128 µM, the MFC ([1]; Candida albicans, CCARM14007, 24 h, pH 7.2) was greater than 128 µM and the MFC (C. albicans KCTC 7270; KCTC7270, read-out: MFC after six passages, 28 °C, surviving cells at half MFC re-treated each passage) was 2050 µM (≈ 627 µg/mL). It also gave an MFC (C. albicans KCTC 7270; KCTC7270, read-out: MFC after six passages, 37 °C, surviving cells at half MFC re-treated each passage) of 4100 µM (≈ 1250 µg/mL), an MFC (C. albicans KCTC 7270; KCTC7270, read-out: MFC at first passage, 28 °C, drug-sensitive C. albicans KCTC 7270) of 128 µM (≈ 39.2 µg/mL) and an MFC (C. albicans KCTC 7270; KCTC7270, read-out: MFC at first passage, 37 °C, drug-sensitive C. albicans KCTC 7270) of 128 µM (≈ 39.2 µg/mL). For the same compound, the “TNF-α expression (in words)” value ([3]; CLSM) was “Overexpression of TNF-α”, the “macrophage morphology (in words)” value ([3]; with C. albicans) was “Lamellipodia extension and spreading of cells” and the “inhibition of TNF-α secretion in whole blood serum” value ([4]; C. albicans-infected mice, 2 mg/kg intratracheal 1 h after infection, 6 days, ELISA) was “approximately 65%”. For the same compound, the “NO production in whole blood serum (in words)” value ([4]; C. albicans-infected mice, 2 mg/kg intratracheal 1 h after infection, 6 days, Griess reagent) was “did not inhibit NO production” and the “lung histology of infected mice (in words)” value ([4]; C. albicans-infected mice, 2 mg/kg intratracheal, H&E and alcian blue staining) was “an increase in the release of mucins”.
With KWYKKWYKKWYK-NH2 [PS1-2] the MFC ([1]; CCARM 14007, 24 h, pH 6) was 32 µM, the MFC ([1]; CCARM 14007, 24 h, pH 7.2) was 32 µM and the “cells killed (PI-positive cells)” value (C. albicans CCARM 14007) was 87%. The “lung histology of non-infected mice (in words)” value ([4]; mouse, in vivo, 2 mg/kg) was “did not induce inflammation” and the “toxicity / cytotoxicity (in words)” value [2] was “significantly lower than that of PS1-6”.
